Data from PubChem BioAssay AID2060626 (Molecular Pharmacology Branch, DTP, NCI, 2025).
pIC50: −log10 of the molar value. Several values for one entry are separate records, joined by “and”; a condition that tells them apart may be missing. Equal values may be shown once.

Tested on: 168753-222-R-J1-PDC complex spheroid viability
Test: Anticancer human tumor 168753-222-R-J1-PDC patient-derived bladder carcinoma cell line growth inhibition [CLK]
Settings: for viability, T/C: stronger effect = lower value
Method in brief: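 Multi-cell-type spheroids combined patient-derived tumor cells with HUVEC endothelial cells and human mesenchymal stem cells. Paired agents were dosed in half-log steps down from about clinical Cmax, or from 10 microM where Cmax was unknown.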

[1] = curve of first compound, second compound 0.0316 µM
[2] = curve of first compound, second compound 0.1 µM
[3] = curve of first compound, second compound 0.316 µM
[4] = curve of first compound, second compound 1 µM
[5] = curve of first compound, second compound 3.16 µM
[6] = curve of first compound, second compound 10 µM
[7] = second compound 0.0316 µM, first compound 0.0316 µM
[8] = second compound 0.0316 µM, first compound 0.1 µM
[9] = second compound 0.0316 µM, first compound 0.316 µM
[10] = second compound 0.0316 µM, first compound 1 µM
[11] = second compound 0.1 µM, first compound 0.0316 µM
[12] = second compound 0.1 µM, first compound 0.1 µM
[13] = second compound 0.1 µM, first compound 0.316 µM
[14] = second compound 0.1 µM, first compound 1 µM
[15] = second compound 0.316 µM, first compound 0.0316 µM
[16] = second compound 0.316 µM, first compound 0.1 µM
[17] = second compound 0.316 µM, first compound 0.316 µM
[18] = second compound 0.316 µM, first compound 1 µM
[19] = second compound 1 µM, first compound 0.0316 µM
[20] = second compound 1 µM, first compound 0.1 µM
[21] = second compound 1 µM, first compound 0.316 µM
[22] = second compound 1 µM, first compound 1 µM
[23] = second compound 3.16 µM, first compound 0.0316 µM
[24] = second compound 3.16 µM, first compound 0.1 µM
[25] = second compound 3.16 µM, first compound 0.316 µM
[26] = second compound 3.16 µM, first compound 1 µM
[27] = second compound 10 µM, first compound 0.0316 µM
[28] = second compound 10 µM, first compound 0.1 µM
[29] = second compound 10 µM, first compound 0.316 µM
[30] = second compound 10 µM, first compound 1 µM
[31] = second compound 0.0316 µM, first compound 3.16 µM
[32] = second compound 0.0316 µM, first compound 10 µM
[33] = second compound 0.1 µM, first compound 3.16 µM
[34] = second compound 0.1 µM, first compound 10 µM
[35] = second compound 0.316 µM, first compound 3.16 µM
[36] = second compound 0.316 µM, first compound 10 µM
[37] = second compound 1 µM, first compound 3.16 µM
[38] = second compound 1 µM, first compound 10 µM
[39] = second compound 3.16 µM, first compound 3.16 µM
[40] = second compound 3.16 µM, first compound 10 µM
[41] = second compound 10 µM, first compound 3.16 µM
[42] = second compound 10 µM, first compound 10 µM
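Note: viability measured after seven days of drug exposure.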
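Throughout, for viability, T/C: luminescence signal used as surrogate for viable cell amount; 100% = DMSO vehicle control wells.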

## CCc1c2c(nc3ccc(O)cc13)-c1cc3c(c(=O)n1C2)COC(=O)[C@]3(O)CC + CNC(=O)c1ccc(Nc2nc(OC3CCCC3)c3c(-c4ccc5nc(C)oc5c4)c[nH]c3n2)c(OC)c1
[1]
  pIC50: 6.93
[2]
  pIC50: 6.70
[3]
  pIC50: 7.29
[4]
  pIC50: > 8.50
[5]
  pIC50: > 8.50
[6]
  pIC50: > 8.50
Second compound 0.0316 µM, first compound 0.00316 µM
  viability, T/C: 109%
Second compound 0.0316 µM, first compound 0.01 µM
  viability, T/C: 96.2%
[7]
  viability, T/C: 77.2%
[8]
  viability, T/C: 48.9%
[9]
  viability, T/C: 35.8%
[10]
  viability, T/C: 14.6%
Second compound 0.1 µM, first compound 0.00316 µM
  viability, T/C: 99.1%
Second compound 0.1 µM, first compound 0.01 µM
  viability, T/C: 87.4%
[11]
  viability, T/C: 87.8%
[12]
  viability, T/C: 50.8%
[13]
  viability, T/C: 48.8%
[14]
  viability, T/C: 12.8%
Second compound 0.316 µM, first compound 0.00316 µM
  viability, T/C: 82.1%
Second compound 0.316 µM, first compound 0.01 µM
  viability, T/C: 88.2%
[15]
  viability, T/C: 62.5%
[16]
  viability, T/C: 30.1%
[17]
  viability, T/C: 24.6%
[18]
  viability, T/C: 8.79%
Second compound 1 µM, first compound 0.00316 µM
  viability, T/C: 35.1%
Second compound 1 µM, first compound 0.01 µM
  viability, T/C: 29.9%
[19]
  viability, T/C: 17.4%
[20]
  viability, T/C: 14.1%
[21]
  viability, T/C: 14.8%
[22]
  viability, T/C: 11.5%
Second compound 3.16 µM, first compound 0.00316 µM
  viability, T/C: 18.8%
Second compound 3.16 µM, first compound 0.01 µM
  viability, T/C: 18.2%
[23]
  viability, T/C: 13%
[24]
  viability, T/C: 12.1%
[25]
  viability, T/C: 13.3%
[26]
  viability, T/C: 10.3%
Second compound 10 µM, first compound 0.00316 µM
  viability, T/C: 16.9%
Second compound 10 µM, first compound 0.01 µM
  viability, T/C: 15.3%
[27]
  viability, T/C: 16.1%
[28]
  viability, T/C: 12.6%
[29]
  viability, T/C: 13.1%
[30]
  viability, T/C: 7.91%

## Cn1ncnc1[C@H]1c2n[nH]c(=O)c3cc(F)cc(c23)N[C@@H]1c1ccc(F)cc1
Compound 0.000316 µM
  viability, T/C: 82.2% and 103%
Compound 0.001 µM
  viability, T/C: 97% and 99.6%
Compound 0.00316 µM
  viability, T/C: 70% and 106%
Compound 0.01 µM
  viability, T/C: 87.6% and 108%
Compound 0.0316 µM
  viability, T/C: 74.9% and 108%
Compound 0.1 µM
  viability, T/C: 55.2% and 91.6%
Curve of compound
  pIC50: < 7.00

## Nc1ccn(C2OC(CO)C(O)C2(F)F)c(=O)n1 (stereo not drawn) + CN1CCN(c2cc(C(=O)Nc3cc4cc(-c5cnn(C)c5)ccc4cn3)ccn2)CC1
[1]
  pIC50: 7.29
[2]
  pIC50: 7.34
[3]
  pIC50: > 7.50
[4]
  pIC50: > 7.50
[5]
  pIC50: > 7.50
[6]
  pIC50: > 7.50
[7]
  viability, T/C: 65.4%
[8]
  viability, T/C: 28.6%
[9]
  viability, T/C: 21.3%
[10]
  viability, T/C: 19%
[31]
  viability, T/C: 15.6%
[32]
  viability, T/C: 16%
[11]
  viability, T/C: 63.6%
[12]
  viability, T/C: 21.3%
[13]
  viability, T/C: 15.4%
[14]
  viability, T/C: 11.6%
[33]
  viability, T/C: 10.2%
[34]
  viability, T/C: 11.8%
[15]
  viability, T/C: 9.99%
[16]
  viability, T/C: 10.4%
[17]
  viability, T/C: 9.64%
[18]
  viability, T/C: 9.63%
[35]
  viability, T/C: 10.7%
[36]
  viability, T/C: 12%
[19]
  viability, T/C: 0.28%
[20]
  viability, T/C: 0.18%
[21]
  viability, T/C: 0.16%
[22]
  viability, T/C: 0.12%
[37]
  viability, T/C: 0.57%
[38]
  viability, T/C: 0.21%
[23]
  viability, T/C: 0.1%
[24]
  viability, T/C: 0.12%
[25]
  viability, T/C: 0.43%
[26]
  viability, T/C: 0.07%
[39]
  viability, T/C: 0.15%
[40]
  viability, T/C: 0.1%
[27]
  viability, T/C: 0.14%
[28]
  viability, T/C: 0.14%
[29]
  viability, T/C: 1.05%
[30]
  viability, T/C: 1.61%
[41]
  viability, T/C: 0.42%
[42]
  viability, T/C: 0.9%

## CC(CO)NC(=O)c1cc(-c2ccc(Cl)cc2)nn(-c2cnn(C)c2)c1=O (stereo not drawn) + CN1CCN(c2cc(C(=O)Nc3cc4cc(-c5cnn(C)c5)ccc4cn3)ccn2)CC1
[1]
  pIC50: < 5.00
[2]
  pIC50: 5.28
[3]
  pIC50: > 7.50
[4]
  pIC50: > 7.50
[5]
  pIC50: > 7.50
[6]
  pIC50: > 7.50
[7]
  viability, T/C: 98.7%
[8]
  viability, T/C: 130%
[9]
  viability, T/C: 64%
[10]
  viability, T/C: 112%
[31]
  viability, T/C: 117%
[32]
  viability, T/C: 88.2%
[11]
  viability, T/C: 87.2%
[12]
  viability, T/C: 81.8%
[13]
  viability, T/C: 64.1%
[14]
  viability, T/C: 73.3%
[33]
  viability, T/C: 58.6%
[34]
  viability, T/C: 39.6%
[15]
  viability, T/C: 19.4%
[16]
  viability, T/C: 13.6%
[17]
  viability, T/C: 16.8%
[18]
  viability, T/C: 13.8%
[35]
  viability, T/C: 19.1%
[36]
  viability, T/C: 13.8%
[19]
  viability, T/C: 0.44%
[20]
  viability, T/C: 0.4%
[21]
  viability, T/C: 0.31%
[22]
  viability, T/C: 0.55%
[37]
  viability, T/C: 0.46%
[38]
  viability, T/C: 3.13%
[23]
  viability, T/C: 0.2%
[24]
  viability, T/C: 0.16%
[25]
  viability, T/C: 2.4%
[26]
  viability, T/C: 0.15%
[39]
  viability, T/C: 2.55%
[40]
  viability, T/C: 0.21%
[27]
  viability, T/C: 0.26%
[28]
  viability, T/C: 0.45%
[29]
  viability, T/C: 0.61%
[30]
  viability, T/C: 0.27%
[41]
  viability, T/C: 1.02%
[42]
  viability, T/C: 2.24%
